From patent publication US10611747B2, “Pyrone based compounds for treating bacterial infections” (FORGE THERAPEUTICS, INC., priority 2015, dated 2020) come the findings set out here.

Common to all, as to experiment: Bacterial susceptibility testing (MIC, broth microdilution)
What all share (format): cell-based
On the technique in general: Dilution methods test growth across graded concentrations, often in twofold steps.

In assay [1] the test system is E. coli ATCC 25922. The note with it: Escherichia coli. Here is the method: (§1) Minimal inhibitory concentrations (MIC) were determined by the broth microdilution method in accordance with the Clinical and Laboratory Standards Institute (CLSI) guidelines. In brief, organism suspensions were adjusted to a 0.5 McFarland standard to yield a final inoculum between 3×10^5 and 7×10^5 colony-forming units (CFU)/mL. Drug dilutions and inocula were made in sterile, cation adjusted Mueller-Hinton Broth (Beckton Dickinson). An inoculum volume of 100 μL was added to wells containing 100 μL of broth with 2-fold serial dilutions of drug. All inoculated microdilution trays were incubated in ambient air at 35° C. for 18-24 h. […] Performance of the assay was monitored by the use of laboratory quality-control strains and levofloxacin, a compound with a defined MIC spectrum, in accordance with CLSI guidelines.

The subject of assay [2] is S. aureus ATCC 29213. Particulars: Staphylococcus aureus. The protocol: as §1
Assay [3] deals with P. aeruginosa 209. Here is the method:
as §1

Assay [4] relates to P. aeruginosa 210 delta mexAB-OprM. The note with it: Pseudomonas aeruginosa, read-out: MIC P. aeruginosa 210 delta mexAB-OprM. The protocol: as §1
For assay [5], the system named is E. coli BW25113. Particulars: Escherichia coli, no FBS, 35° C., 18-24 h. Here is the method: as §1
For assay [6], the system named is E. coli imp mutant. The note with it: Escherichia coli, read-out: MIC E. coli imp mutant. The protocol:
as §1

Assay [7] concerns E. coli delta tolC. Particulars: Escherichia coli, 24 h, read-out: MIC E. coli delta tolC. The protocol:
as §1

Where [8] appears, read: ATCC25922, read-out: MIC E. coli ATCC 25922-no FBS.
The mark [9] stands for this setting: ATCC29213, read-out: MIC S. aureus ATCC 29213.
Setting [10] is: Pseudomonas aeruginosa, 209, read-out: MIC P. aeruginosa 209.
Where [11] appears, read: ATCC25922, no FBS, broth microdilution, 35° C., 18-24 h, read-out: MIC E. coli ATCC 25922-no FBS.
Where [12] appears, read: ATCC29213, broth microdilution, 35° C., 18-24 h, read-out: MIC S. aureus ATCC 29213.
Where [13] appears, read: Pseudomonas aeruginosa, 209, broth microdilution, 35° C., 18-24 h, read-out: MIC P. aeruginosa 209.

Converted amounts (≈) assume the structure as drawn. Where two headings read alike, the source gives them in different places.

On to `CS(=O)(=O)Cc1cc(=O)c(O)c(COc2ccc(C#CC#Cc3ccccc3)cc2)o1` [Compound 11], for which the MIC in assay [1] (setting [8]) is greater than 32 µg/mL; in assay [2] (setting [9]), 1 to 8 µg/mL (≈ 2.3 to 18.4 µM); in assay [3] (setting [10]), greater than 32 µg/mL.
Turning to `O=C(O)c1ccc(C#Cc2ccc(NCc3occc(=O)c3O)cc2)cc1` [Compound 53], the MIC in assay [1] (setting [11]), in assay [4], in assay [5], in assay [2] (setting [12]), in assay [6] and in assay [3] (setting [13]) was greater than 32 µg/mL in each case. The MIC in assay [7] lay in the range of 1 to 8 µg/mL (≈ 2.77 to 22.1 µM).
Regarding `O=C(c1ccc(C#Cc2ccc(NCc3occc(=O)c3O)cc2)cc1)N1CC(O)C1` [Compound 54], the MIC in assay [1] (setting [11]), in assay [4], in assay [5], in assay [2] (setting [12]), in assay [6] and in assay [3] (setting [13]) was greater than 32 µg/mL in each case. Further, the MIC in assay [7] is 8 to 32 µg/mL (≈ 19.2 to 76.8 µM).
Turning to `N#Cc1ccc(C#Cc2ccc(NCc3occc(=O)c3O)cc2)cc1` [Compound 52], the MIC in assay [1] (setting [11]), in assay [4], in assay [5], in assay [2] (setting [12]), in assay [6] and in assay [3] (setting [13]) was greater than 32 µg/mL each time. Moreover, in assay [7], the MIC is greater than 32 µg/mL.
On to `CS(=O)(=O)Cc1cc(=O)c(O)c(CNc2ccc(C#CC#Cc3ccccc3)cc2)o1` [Compound 5, 2-((4-(4-phenylbuta-1,3-diynyl)phenylamino)methyl)-3-hydroxy-6-((methylsulfonyl)methyl)-4H-pyran-4-one], for which the MIC in assay [1] (setting [8]) was 8 to 32 µg/mL (≈ 18.5 to 73.8 µM); in assay [4], greater than 32 µg/mL; in assay [5], 1 to 8 µg/mL (≈ 2.31 to 18.5 µM); in assay [2] (setting [9]), greater than 32 µg/mL; in assay [6] it was 1 to 8 µg/mL (≈ 2.31 to 18.5 µM); in assay [3] (setting [10]), greater than 32 µg/mL. For the same compound, in assay [7], the MIC is 1 to 8 µg/mL (≈ 2.31 to 18.5 µM).
For the compound `O=C(c1ccc(C#CC#Cc2ccc(NCc3occc(=O)c3O)cc2)cc1)N1CCC(O)C1` (stereo not drawn) [Compound 45], the MIC in assay [1] (setting [11]) is 1 to 8 µg/mL (≈ 2.2 to 17.6 µM); in assay [4] it was 8 to 32 µg/mL (≈ 17.6 to 70.4 µM); in assay [5], 1 to 8 µg/mL (≈ 2.2 to 17.6 µM); in assay [2] (setting [12]), greater than 32 µg/mL; in assay [6] it was less than 1 µg/mL; in assay [3] (setting [13]), greater than 32 µg/mL. In addition, the MIC in assay [7] was less than 1 µg/mL.
For the compound `O=C(NCCN1CCOCC1)c1ccc(C#CC#Cc2ccc(NCc3occc(=O)c3O)cc2)cc1` [Compound 46], the MIC in assay [1] (setting [11]) was 8 to 32 µg/mL (≈ 16.1 to 64.3 µM); in assay [4] it was greater than 32 µg/mL; in assay [5], 1 to 8 µg/mL (≈ 2.01 to 16.1 µM); in assay [2] (setting [12]), greater than 32 µg/mL; in assay [6], 1 to 8 µg/mL (≈ 2.01 to 16.1 µM); in assay [3] (setting [13]) it was greater than 32 µg/mL. The MIC in assay [7] is less than 1 µg/mL.
Take `O=C(c1ccc(C#CC#Cc2ccc(NCc3occc(=O)c3O)cc2)cc1)N1CCC[C@H]1CO` [Compound 50]: the MIC in assay [1] (setting [11]) and in assay [5] was 1 to 8 µg/mL (≈ 2.13 to 17.1 µM) each time.
In the case of `O=C(NCCO)c1ccc(C#CC#Cc2ccc(NCc3occc(=O)c3O)cc2)cc1` [Compound 44], the MIC in assay [1] (setting [11]) is 1 to 8 µg/mL (≈ 2.33 to 18.7 µM); in assay [4], 8 to 32 µg/mL (≈ 18.7 to 74.7 µM); in assay [5], 1 to 8 µg/mL (≈ 2.33 to 18.7 µM); in assay [2] (setting [12]), greater than 32 µg/mL; in assay [6] it was less than 1 µg/mL; in assay [3] (setting [13]), greater than 32 µg/mL. For the same compound, the MIC in assay [7] was less than 1 µg/mL.
For `O=C(c1ccc(C#CC#Cc2ccc(NCc3occc(=O)c3O)cc2)cc1)N1CCN2CCCC2C1` (stereo not drawn) [Compound 43], the MIC in assay [1] (setting [11]) was 1 to 8 µg/mL (≈ 2.03 to 16.2 µM); in assay [4], 8 to 32 µg/mL (≈ 16.2 to 64.8 µM); in assay [5], 1 to 8 µg/mL (≈ 2.03 to 16.2 µM); in assay [2] (setting [12]) it was greater than 32 µg/mL; in assay [6], 1 to 8 µg/mL (≈ 2.03 to 16.2 µM); in assay [3] (setting [13]) it was greater than 32 µg/mL. In assay [7], the MIC is less than 1 µg/mL.
On to `CNC(=O)C#CC#Cc1ccc(NCc2oc(CS(C)(=O)=O)cc(=O)c2O)cc1` [Compound 6, 5-(4-(((3-hydroxy-6-((methylsulfonyl)methyl)-4-oxo-4H-pyran-2-yl)methyl)amino)phenyl)-N-methylpenta-2,4-diynamide], for which the MIC in assay [1] (setting [8]), in assay [4], in assay [5], in assay [2] (setting [9]), in assay [6] and in assay [3] (setting [10]) was greater than 32 µg/mL throughout. In addition, the MIC in assay [7] is greater than 32 µg/mL.
With `CN1CC2CN(C(=O)c3ccc(C#CC#Cc4ccc(NCc5occc(=O)c5O)cc4)cc3)CC2C1` (stereo not drawn) [Compound 41], the MIC in assay [1] (setting [11]) is 1 to 8 µg/mL (≈ 2.03 to 16.2 µM); in assay [4], 8 to 32 µg/mL (≈ 16.2 to 64.8 µM); in assay [5], 1 to 8 µg/mL (≈ 2.03 to 16.2 µM); in assay [2] (setting [12]) it was greater than 32 µg/mL; in assay [6], 1 to 8 µg/mL (≈ 2.03 to 16.2 µM); in assay [3] (setting [13]), greater than 32 µg/mL. Further, the MIC in assay [7] is less than 1 µg/mL.
